Starred links: 1 amine or outer side, 2 acyl side, 3 side chain; linkers in the order of their positions; H or OH if unused. Positions of bridges follow the written chain, without caps; N, C: chain ends. Non-standard residues stand in square brackets, D forms with d. Residues, ends and D or L forms follow the SMILES beside them. Chains are numbered I, II in the order given. Actinocin(9to1) = Cc1c2oc3c(C)ccc(C(=O)[*:1])c3nc-2c(C(=O)[*:2])c(N)c1=O; NMeV = CN[C@H](C(=O)O)C(C)C; Sar = CNCC(=O)O
Tests used:
Format in all cases: cell-based, human
HeLa cells [1] = test: Comparison with single layer culture method in cell proliferation test using agent for inducing apoptosis; conditions: day 4
Method: (§1) This aqueous solution was sterilized at 121° C. for 20 min in an autoclave.
Each plate was cultured by being stood still in a CO2 incubator (37° C., 5% CO2). […] To the culture medium on day 4 was added an ATP reagent (150 μL) (CellTiter-Glo (registered trade mark) Luminescent Cell Viability Assay, manufactured by Promega) to give a suspension, which was stood for about 10 min at room temperature, and the luminescence intensity (RLU value) was measured by FlexStation3 (manufactured by Molecular Devices), and the number of viable cells was measured by subtracting the luminescence value of the medium alone. For WST-8 measurement, a WST-8 solution (manufactured by is DOJINDO Laboratories, 15 μL) was added, the mixture was incubated at 37° C. for 100 min, the absorbance at 450 nm was measured by an absorbance spectrometer (manufactured by Molecular Devices, SPECTRA MAX 190), and the number of viable cells was measured by subtracting the absorbance of the medium alone.

HeLa cells [2] = test: Cell proliferation test using various anticancer drugs; conditions: HeLa cells 5 days later, DAG 0.030% medium
Method: This aqueous solution was sterilized at 121° C. for 20 min in an autoclave. […] The anticancer drug used was Adriamycin (manufactured by WAKO), Paclitaxel (manufactured by WAKO) or Mitomycin C (manufactured by WAKO).
Successively, this plate was cultured by being stood still in a CO2 incubator (37° C., 5% CO2) for 7 days. After culturing for 3, 5, 7 days, to the culture medium was added a WST-8 solution (manufactured by DOJINDO Laboratories, 20 μL), and the mixture was incubated at 37° C. for 100 min. The absorbance at 450 nm was measured by an absorbance spectrometer (manufactured by Molecular Devices, SPECTRA MAX 190), and the number of viable cells was measured by subtracting the absorbance of the medium alone. The culture medium containing the cells after 5 days of culture was stirred with a pipette and the obtained stirred solution (20 μL) was mixed with Trypan Blue stain 0.4% (manufactured by Invitrogen, 20 μL) and the cell density was measured under a microscope.

HeLa cells [3] = test: HeLa cell proliferation test using Trametinib and MK-2206; conditions: drug from day 1 for 5 days
Method: as §1
(§2) Each plate was cultured by being stood still in a CO2 incubator (37° C., 5% CO2). […] The anticancer drugs used were Trametinib (manufactured by Santa Cruz, MEK inhibitor) and MK-2206 (manufactured by Santa Cruz, Akt inhibitor). To the culture medium on day 6 was added an ATP reagent (150 μL) (CellTiter-Glo (registered trade mark) Luminescent Cell Viability Assay, manufactured by Promega) to give a suspension, which was stood for about 10 min at room temperature, and the luminescence intensity (RLU value) was measured by FlexStation3 (manufactured by Molecular Devices), and the number of viable cells was measured by subtracting the luminescence value of the medium alone.

A549 cells = test: A549 cell proliferation test using Trametinib and MK-2206; conditions: drug from day 1 for 5 days
Method: This aqueous solution was sterilized at 121° C. for 20 min is in an autoclave.
as §2

[4] = 1 μM, deacylated gellan gum addition group (0.015%)
[5] = 10 μM, deacylated gellan gum addition group (0.015%)
[6] = 10 μM, single layer culture group
[7] = 1 μM, single layer culture group
[8] = 0.001 μM, single layer culture group
[9] = 0.003 μM, deacylated gellan gum addition group (0.015%)
[10] = 0.003 μM, single layer culture group
[11] = 0.01 μM, deacylated gellan gum addition group (0.015%)
[12] = 0.01 μM, single layer culture group
[13] = 0.001 μM, deacylated gellan gum addition group (0.015%)
[14] = 100 μM, deacylated gellan gum addition group (0.015%)
[15] = 100 μM, single layer culture group
[16] = 0.1 μM, deacylated gellan gum addition group (0.015%)
[17] = 0.1 μM, single layer culture group
[18] = 0.03 μM, deacylated gellan gum addition group (0.015%)
[19] = 0.03 μM, single layer culture group
[20] = 0.3 μM, deacylated gellan gum addition group (0.015%)
[21] = 0.3 μM, single layer culture group
[22] = 3 μM, deacylated gellan gum addition group (0.015%)
[23] = 3 μM, single layer culture group
[24] = 30 μM, deacylated gellan gum addition group (0.015%)
[25] = 30 μM, single layer culture group

C[C@@H]1C[C@H]2[C@@H]3CCC4=CC(=O)C=C[C@]4(C)[C@@]3(F)[C@@H](O)C[C@]2(C)[C@@]1(O)C(=O)CO [Dexamethasone]
% Control of RLU value (ATP) (HeLa cells [1]; [4]): 232 % Control
% Control of absorbance at 450 nm (WST-8) (HeLa cells [1]; [4]): 184 % Control
% Control of RLU value (ATP) (HeLa cells [1]; [5]): 241 % Control
% Control of absorbance at 450 nm (WST-8) (HeLa cells [1]; [5]): 173 % Control
% Control of RLU value (ATP) (HeLa cells [1]; [6]): 116 % Control

Cc1c2oc3c(C)ccc(C(=O)N[C@@H]4C(=O)N[C@H](C(C)C)C(=O)N5CCC[C@H]5C(=O)N(C)CC(=O)N(C)[C@@H](C(C)C)C(=O)O[C@@H]4C)c3nc-2c(C(=O)N[C@@H]2C(=O)N[C@H](C(C)C)C(=O)N3CCC[C@H]3C(=O)N(C)CC(=O)N(C)[C@@H](C(C)C)C(=O)O[C@@H]2C)c(N)c1=O [Actinomycin D] (I: T[dV]P[Sar][NMeV] / II: T[dV]P[Sar][NMeV]; ester I:1-I:C, II:1-II:C; linker I:N-II:N via Actinocin(9to1))
% Control of RLU value (ATP) (HeLa cells [1]; [4]): 4 % Control
% Control of absorbance at 450 nm (WST-8) (HeLa cells [1]; [4]): 3 % Control
% Control of RLU value (ATP) (HeLa cells [1]; [7]): 2 % Control
% Control of absorbance at 450 nm (WST-8) (HeLa cells [1]; [7]): 2 % Control
% Control of RLU value (ATP) (HeLa cells [1]; [5]): 6 % Control
% Control of absorbance at 450 nm (WST-8) (HeLa cells [1]; [5]): 12 % Control
% Control of RLU value (ATP) (HeLa cells [1]; [6]): 2 % Control
% Control of absorbance at 450 nm (WST-8) (HeLa cells [1]; [6]): 4 % Control

COc1cccc2c1C(=O)c1c(O)c3c(c(O)c1C2=O)C[C@@](O)(C(=O)CO)C[C@@H]3O[C@H]1C[C@H](N)[C@H](O)[C@H](C)O1 [Adriamycin]
cell density (HeLa cells [2]; 1 μM): 0.6 10^4 cells/mL

CC(=O)O[C@H]1C(=O)[C@@]2(C)[C@H]([C@H](OC(=O)c3ccccc3)[C@]3(O)C[C@H](OC(=O)[C@H](O)[C@@H](NC(=O)c4ccccc4)c4ccccc4)C(C)=C1C3(C)C)[C@]1(OC(C)=O)CO[C@@H]1C[C@@H]2O [Paclitaxel]
cell density (HeLa cells [2]; 0.1 μM): 0.9 10^4 cells/mL
cell density (HeLa cells [2]; 1 μM): 0.2 10^4 cells/mL
% Control of RLU value (ATP) (HeLa cells [3]; [8]): 89 % Control
% Control of RLU value (ATP) (HeLa cells [3]; [9]): 46 % Control
% Control of RLU value (ATP) (HeLa cells [3]; [10]): 15 % Control
% Control of RLU value (ATP) (HeLa cells [3]; [11]): 5 % Control
% Control of RLU value (ATP) (HeLa cells [3]; [12]): 2 % Control
% Control of RLU value (ATP) (A549 cells; [13]): 93 % Control
% Control of RLU value (ATP) (A549 cells; [8]): 81 % Control
% Control of RLU value (ATP) (A549 cells; [9]): 52 % Control
% Control of RLU value (ATP) (A549 cells; [10]): 31 % Control
% Control of RLU value (ATP) (A549 cells; [11]): 32 % Control
% Control of RLU value (ATP) (A549 cells; [12]): 16 % Control

C[C@@H]1C[C@@H]([C@H](O)CC2CC(=O)NC(=O)C2)C(=O)[C@@H](C)C1 [Cycloheximide]
% Control of RLU value (ATP) (HeLa cells [1]; [5]): 9 % Control
% Control of absorbance at 450 nm (WST-8) (HeLa cells [1]; [5]): 4 % Control
% Control of RLU value (ATP) (HeLa cells [1]; [6]): 29 % Control
% Control of absorbance at 450 nm (WST-8) (HeLa cells [1]; [6]): 21 % Control
% Control of RLU value (ATP) (HeLa cells [1]; [14]): 4 % Control
% Control of absorbance at 450 nm (WST-8) (HeLa cells [1]; [14]): 1 % Control
% Control of RLU value (ATP) (HeLa cells [1]; [15]): 9 % Control
% Control of absorbance at 450 nm (WST-8) (HeLa cells [1]; [15]): 7 % Control

CC(=O)Nc1cccc(-n2c(=O)n(C3CC3)c(=O)c3c(Nc4ccc(I)cc4F)n(C)c(=O)c(C)c32)c1 [Trametinib]
% Control of RLU value (ATP) (HeLa cells [3]; [13]): 73 % Control
% Control of RLU value (ATP) (HeLa cells [3]; [8]): 102 % Control
% Control of RLU value (ATP) (HeLa cells [3]; [11]): 12 % Control
% Control of RLU value (ATP) (HeLa cells [3]; [12]): 93 % Control
% Control of RLU value (ATP) (HeLa cells [3]; [16]): 1 % Control
% Control of RLU value (ATP) (HeLa cells [3]; [17]): 20 % Control
% Control of RLU value (ATP) (HeLa cells [3]; [4]): 1 % Control
% Control of RLU value (ATP) (HeLa cells [3]; [7]): 3 % Control
% Control of RLU value (ATP) (A549 cells; [13]): 72 % Control
% Control of RLU value (ATP) (A549 cells; [8]): 71 % Control
% Control of RLU value (ATP) (A549 cells; [11]): 35 % Control
% Control of RLU value (ATP) (A549 cells; [12]): 37 % Control
% Control of RLU value (ATP) (A549 cells; [16]): 2 % Control
% Control of RLU value (ATP) (A549 cells; [17]): 5 % Control
% Control of RLU value (ATP) (A549 cells; [4]): 0 % Control
% Control of RLU value (ATP) (A549 cells; [7]): 1 % Control

NC1(c2ccc(-c3nc4ccn5c(=O)[nH]nc5c4cc3-c3ccccc3)cc2)CCC1 [MK-2206]
% Control of RLU value (ATP) (HeLa cells [3]; [18]): 57 % Control
% Control of RLU value (ATP) (HeLa cells [3]; [19]): 93 % Control
% Control of RLU value (ATP) (HeLa cells [3]; [20]): 21 % Control
% Control of RLU value (ATP) (HeLa cells [3]; [21]): 84 % Control
% Control of RLU value (ATP) (HeLa cells [3]; [22]): 21 % Control
% Control of RLU value (ATP) (HeLa cells [3]; [23]): 69 % Control
% Control of RLU value (ATP) (HeLa cells [3]; [24]): 0 % Control
% Control of RLU value (ATP) (HeLa cells [3]; [25]): 0 % Control
% Control of RLU value (ATP) (A549 cells; [18]): 84 % Control
% Control of RLU value (ATP) (A549 cells; [19]): 93 % Control
% Control of RLU value (ATP) (A549 cells; [20]): 45 % Control
% Control of RLU value (ATP) (A549 cells; [21]): 79 % Control
% Control of RLU value (ATP) (A549 cells; [22]): 21 % Control
% Control of RLU value (ATP) (A549 cells; [23]): 53 % Control
% Control of RLU value (ATP) (A549 cells; [24]): 0 % Control
% Control of RLU value (ATP) (A549 cells; [25]): 0 % Control

Reference: US11371013B2, “Culture medium composition and method of culturing cell or tissue using thereof” (Nissan Chemical Industries, Ltd., priority 2012, dated 2022)
